The values below come from US8053476B2, “Method for treating peripheral neuropathic pain” (UCB Pharma GmbH, priority 2001, dated 2011).

For one assay, the system named is female Wistar rats. The assay is described as follows: Freund's complete adjuvant arthritis model, paw pressure test (Randall Selitto), vocalisation. It is filed as in vivo, rat. The method, then: Experiments were performed in female Wistar rats weighing 80-90 g at the beginning of the experiments. Arthritis was induced by intraplantar injection of Freund's complete adjuvant (FCA, 0.1 ml) to one hindpaw. Drugs were given on day 11 after FCA injection in animals which developed systemic secondary arthritic symptoms as assessed by visual inspection. Mechanical hyperalgesia was than acutely applied and measured by means of the paw pressure test (Randall Selitto method) and supraspinal vocalisation as the biological endpoint of the nociceptive reaction. Measurements were taken at 0 min (before drug injection) and 15 min, 30 min, 60 min, and 24 h after drug injection and all data are expressed as percent of maximal possible effect (% MPE).
10 groups of 15 rats were used and received the following treatments: […]

Assay [1] deals with rat. The assay is described as follows: Formalin test, rat: prolonged inflammatory pain (weighted pain score). Type of assay: in vivo. As to conditions: i.p. just prior to formalin injection, 5-40 mg/kg. The procedure:
The formalin test is a chemically-induced tonic pain model in which biphasic changes of nociceptive behaviour are assessed and spinal/supraspinal plasticity of nociception is considered as a molecular basis for neuropathic pain particularly during the second (=late) phase of the test, during which most clinically used drugs against neuropathic pain are active.
The compound was tested for anti-nociceptive properties by use of the weighted behavioural scoring method: Freely moving animals underwent observational assessment of the position of the left hind paw according to a rating score scaled 0-3 before and 10, 20, 30 and 40 min after injection of 0.05 ml of sterile 2.5% formalin under the skin on the dorsal surface of the paw.

In assay [2] the test system is rat. The assay is described as follows: Chronic constriction injury (CCI, Bennett-model), mechanical allodynia (Von Frey pressure algometer). As to conditions: for Pressure to elicit foot withdrawal, Post-operative + SPM 927: ligated hind paw, ±SEM. Type of assay: in vivo. The method, then:
(§1) The effectiveness of SPM 927 in reducing spontaneous chronic pain, mechanical allodynia, and thermal hyperalgesia was tested using the chronic constriction injury (CCI) model of peripheral neuropathy, one of the best characterised in vivo animal models used to study chronic pain due to peripheral nerve injury. In this model, loose ligatures are placed around the sciatic nerve, which produces axonal swelling and a partial deafferentation manifested as a significant but incomplete loss of axons in the distal portion of the peripheral nerve. One of the prominent behaviours seen following sciatic nerve ligation is the appearance of hind paw guarding, thought to be an indication of an ongoing spontaneous chronic pain. Support for this idea is derived from reports of increased spinal cord neural activity, and increased spontaneous neuronal discharge in spinothalamic tract neurons and in the ventrobasal thalamus in the absence of overt peripheral stimulation. In addition to the appearance of spontaneous pain behaviours, several abnormalities in stimulus evoked pain occur as a result of CCI, including thermal hyperalgesia and mechanical allodynia. The development of these abnormal stimulus-evoked pains has also been reported as occurring in areas outside the territory of the damaged nerve, areas innervated by uninjured nerves.
Behavioural tests for thermal hyperalgesia, and mechanical allodynia were conducted to evaluate different components of neuropathic pain. Baseline data for each test was collected prior to any experimental procedure; in addition, all animals were tested for the development of chronic pain behaviours 13-25 days after CCI surgery 1 day prior to the day of vehicle (0.04 ml sterile water/10 g body weight) or drug administration and after vehicle or drug administration. […]
Mechanical sensitivity and allodynia of the ligated rat hind paw was quantified by brisk foot withdrawal in response to normally innocuous mechanical stimuli as described previously. […]

Assay [3] deals with rat. The assay is described as follows: Chronic constriction injury (CCI, Bennett-model), thermal hyperalgesia (Hargreaves). It is filed as in vivo. As to conditions: for Withdrawal latency, Post-operative + SPM 927: ligated hind paw, radiant heat, ±SEM. The method, then:
as §1
Behavioural tests for thermal hyperalgesia, and mechanical allodynia were conducted to evaluate different components of neuropathic pain. Baseline data for each test was collected prior to any experimental procedure; in addition, all animals were tested for the development of chronic pain behaviours 13-25 days after CCI surgery 1 day prior to the day of vehicle (0.04 ml sterile water/10 g body weight) or drug administration and after vehicle or drug administration. The sequence of the pain-related behaviour tests was (1) thermal hyperalgesia, (2) mechanical allodynia in order to minimise the influence of one test on the result of the next. The testing procedures and results are presented separately for each aspect of chronic pain. Either 0 (vehicle, 0.04 ml/10 g body weight), 5, 10, 20 or 40 mg/kg of SPM 927 (n=7-23/group) was administered i.p. 15 minutes before the first behavioural test.
(1) Thermal hyperalgesia was assessed by means of withdrawal latency in response to radiant heat applied to the subplantar surface of the ligated rat hind paw according to Hargreaves. As compared to the baseline latency (s), a significant decrease in the (postoperative) latency of foot withdrawal in response to the thermal stimulus was interpreted as indicating the presence of thermal hyperalgesia following chronic constriction injury.

For assay [4], the system named is rat. The assay is described as follows: Randall-Selitto paw pressure test, carrageenan induced acute inflammation. It is filed as in vivo. As to conditions: for Mechanical nociceptive threshold pressure, Carrageenan + SPM 927: ±SEM, n=12. The procedure:
Further potential anti-nociceptive efficacy of SPM 927 was assessed in a rat experimental model of acute inflammation using a modified Randall and Selitto procedure. Acute inflammation is induced by injection of s.c. carrageenan (1.0 mg in 0.1 ml saline/paw), an unspecific inflammatory agent, into the plantar surface of one hind paw of the animal. Mechanical sensitivity and nociceptive thresholds were measured using an algesimeter device that exerts a constantly increasing mechanical force (10 mm Hg/sec) on the inflammed hind paw. The mechanical nociceptive threshold is defined as the pressure (mm Hg) at which the rat vocalises or struggles or withdraws its paw. Since its original description, the Randall and Selitto mechanical paw pressure test has become a standard method for testing the efficacy of new compounds for alleviating acute inflammatory pain.
SPM 927 or vehicle (sterile water, 0.04 […]) was administered i.p. 1 hr and 45 minutes after carrageenan, meaning 15 to 20 minutes before the start of behavioural testing. As compared to the response threshold of vehicle-treated controls, an increase in the pressure required to produce a behavioural response is interpreted as antinociception.

For the compound `COC[C@@H](NC(C)=O)C(=O)NCc1ccccc1` [SPM 927, (R)-2-acetamide-N-benzyl-3-methoxypropionamide], in the assay with female Wistar rats (30 mg/kg early (with FCA)), the “Anti-inflammatory effect in FCA arthritis” value is on record as “no anti-inflammatory effects”. Moreover, in the assay with female Wistar rats (5-40 mg/kg acute, significant at 30 and 40 mg/kg), the “Anti-nociceptive effect in FCA arthritis” value is listed as “dose-dependent anti-nociceptive”. The “% MPE” value in the assay on female Wistar rats (FCA rats, 5 mg/kg acute (day 11), 15 min) is −5 % MPE; in the assay on female Wistar rats (FCA rats, 5 mg/kg acute (day 11), 30 min), −5 % MPE; in the assay on female Wistar rats (FCA rats, 5 mg/kg acute (day 11), 60 min) it was −12 % MPE; with female Wistar rats (FCA rats, 5 mg/kg acute (day 11), 24 h), −14 % MPE; in the assay with female Wistar rats (FCA rats, 10 mg/kg acute (day 11), 15 min), “+7 % MPE”; in the assay with female Wistar rats (FCA rats, 10 mg/kg acute (day 11), 30 min) it was −2 % MPE. Besides, the “% MPE” value is 0 % MPE in the assay with female Wistar rats (FCA rats, 10 mg/kg acute (day 11), 60 min); −5 % MPE in the assay with female Wistar rats (FCA rats, 10 mg/kg acute (day 11), 24 h); “+1 % MPE” with female Wistar rats (FCA rats, 20 mg/kg acute (day 11), 15 min); −20 % MPE in the assay with female Wistar rats (FCA rats, 20 mg/kg acute (day 11), 30 min); −9 % MPE in the assay with female Wistar rats (FCA rats, 20 mg/kg acute (day 11), 60 min); −20 % MPE in the assay on female Wistar rats (FCA rats, 20 mg/kg acute (day 11), 24 h). Further, the “% MPE” value is reported as “+58 % MPE” in the assay with female Wistar rats (FCA rats, 30 mg/kg acute (day 11), 15 min); “+33 % MPE” in the assay on female Wistar rats (FCA rats, 30 mg/kg acute (day 11), 30 min); “+16 % MPE” in the assay with female Wistar rats (FCA rats, 30 mg/kg acute (day 11), 60 min); −8 % MPE with female Wistar rats (FCA rats, 30 mg/kg acute (day 11), 24 h); −14 % MPE in the assay on female Wistar rats (FCA rats, 30 mg/kg early (with FCA), anti-inflammatory effects group, 15 min); −7 % MPE in the assay on female Wistar rats (FCA rats, 30 mg/kg early (with FCA), anti-inflammatory effects group, 30 min). Moreover, the “% MPE” value with female Wistar rats (FCA rats, 30 mg/kg early (with FCA), anti-inflammatory effects group, 60 min) was −3 % MPE; in the assay with female Wistar rats (FCA rats, 30 mg/kg early (with FCA), anti-inflammatory effects group, 24 h) it was −11 % MPE; in the assay on female Wistar rats (FCA rats, 40 mg/kg acute (day 11), 15 min) it was “+100 % MPE”; with female Wistar rats (FCA rats, 40 mg/kg acute (day 11), 30 min), “+100 % MPE”; with female Wistar rats (FCA rats, 40 mg/kg acute (day 11), 60 min) it was “+14 % MPE”; with female Wistar rats (FCA rats, 40 mg/kg acute (day 11), 24 h) it was −7 % MPE. The “Dose at which anti-nociceptive effects started” value in the assay on female Wistar rats (FCA rats, most prominent during first 30 min) came to 30 mg/kg. For the same compound, in the assay on rat [1], the “Effect on formalin-induced nociceptive behaviour” value was “dose dependent reduction of the formalin-induced tonic inflammatory nociceptive behaviour”. In addition, the “Pressure to elicit foot withdrawal, Post-operative + SPM 927” value turned out to be 39.5 ± 3.62 g/mm^2 with rat [2] (20 mg/kg i.p.) and 42.9 ± 5.47 g/mm^2 with rat [2] (40 mg/kg i.p.). Besides, the “Effect on mechanical allodynia induced by unilateral nerve ligation” value in the assay with rat [2] (i.p., 5-40 mg/kg) is “dose dependently reduced the intensity of mechanical allodynia”. Also, the “Withdrawal latency, Post-operative + SPM 927” value was 9.1 ± 0.97 s in the assay on rat [3] (5 mg/kg i.p.) and 8.0 ± 0.58 s in the assay on rat [3] (10 mg/kg i.p.). Moreover, in the assay on rat [3] (i.p.), the “Dose at which maximum effect on thermal hyperalgesia was seen” value turned out to be 20 mg/kg. Further, the “Effect on CCI-induced thermal hyperalgesia” value in the assay with rat [3] (i.p., significant only at 20 and 40 mg/kg) is “dose dependently reduced chronic constriction injury-induced thermal hyperalgesia”. For the same compound, the “Mechanical nociceptive threshold pressure, Carrageenan + SPM 927” value in the assay with rat [4] (20 mg/kg i.p. 1 hr 45 min after carrageenan) turned out to be 164.8 ± 13.5 mm Hg; in the assay on rat [4] (40 mg/kg i.p. 1 hr 45 min after carrageenan), 232.7 ± 22.0 mm Hg. Besides, in the assay on rat [4] (20 and 40 mg/kg i.p.), the “Effect on carrageenan induced mechanical hyperalgesia” value was “markedly reduced the mechanical hyperalgesia induced by carrageenan”.

Regarding `CN1CC[C@]23c4c5ccc(O)c4O[C@H]2[C@@H](O)C=C[C@H]3[C@H]1C5` [morphine, reference compound], in the assay on female Wistar rats (10 mg/kg, arthritic and normal animals), the “Antinociceptive effect of positive control” value was “clear antinociceptive effects in arthritic and normal animals”. For the same compound, the “% MPE” value was “+100 % MPE” in the assay on female Wistar rats (FCA rats (disease condition), 10 mg/kg, 15 min); “+100 % MPE” with female Wistar rats (FCA rats (disease condition), 10 mg/kg, 30 min); “+100 % MPE” in the assay on female Wistar rats (FCA rats (disease condition), 10 mg/kg, 60 min); −7 % MPE in the assay with female Wistar rats (FCA rats (disease condition), 10 mg/kg, 24 h); “+100 % MPE” with female Wistar rats (no FCA (normal condition), 10 mg/kg, 15 min); “+100 % MPE” in the assay with female Wistar rats (no FCA (normal condition), 10 mg/kg, 30 min). The “% MPE” value in the assay with female Wistar rats (no FCA (normal condition), 10 mg/kg, 60 min) is reported as “+100 % MPE”; with female Wistar rats (no FCA (normal condition), 10 mg/kg, 24 h), “+2 % MPE”.
